Assays:
[1] = test system: Panc-1; assay: cleaved caspase 3 sandwich ELISA (apoptosis), Panc-1; format: cell-based, human; conditions: 29.6 μg/ml biperiden, after 24 hours
Procedure: (§1) To determine the effect of biperiden, mepazine and combinations of the two active ingredients on apoptosis in cell lines, a “cleaved caspase 3” sandwich ELISA was used. The pancreatic cancer cell lines L3.6pl res, L3.6pl wt, Panc-1, Panc-2 and the reference cell line HPDE were treated with 29.6 μg/ml biperiden or 25 μM mepazine or 15 μM mepazine+3.7 μg/ml biperiden or only with vehicle (DMSO). The cleaved caspase 3 was measured 24, 48 and 72 hours after incubation. The apoptosis within the cells was measured using a PathScan “cleaved caspase 3” sandwich ELISA (Cell Signaling, #7190C) according to the manufacturers instructions. Each experiment was carried out at least 3 times in duplicate.

[2] = target: T1, MALT1 (Homo sapiens, UniProt Q9UDY8); assay: MALT1 activity in treated cells (immunoprecipitation, AC-LRSR-AMC cleavage); format: cell-based
T1 construct: endogenous in cells; host or cells: Panc-1, Panc-2, HPDE, Jurkat (PMA-stimulated and non-stimulated)
T1 sequence (Q9UDY8 1-824): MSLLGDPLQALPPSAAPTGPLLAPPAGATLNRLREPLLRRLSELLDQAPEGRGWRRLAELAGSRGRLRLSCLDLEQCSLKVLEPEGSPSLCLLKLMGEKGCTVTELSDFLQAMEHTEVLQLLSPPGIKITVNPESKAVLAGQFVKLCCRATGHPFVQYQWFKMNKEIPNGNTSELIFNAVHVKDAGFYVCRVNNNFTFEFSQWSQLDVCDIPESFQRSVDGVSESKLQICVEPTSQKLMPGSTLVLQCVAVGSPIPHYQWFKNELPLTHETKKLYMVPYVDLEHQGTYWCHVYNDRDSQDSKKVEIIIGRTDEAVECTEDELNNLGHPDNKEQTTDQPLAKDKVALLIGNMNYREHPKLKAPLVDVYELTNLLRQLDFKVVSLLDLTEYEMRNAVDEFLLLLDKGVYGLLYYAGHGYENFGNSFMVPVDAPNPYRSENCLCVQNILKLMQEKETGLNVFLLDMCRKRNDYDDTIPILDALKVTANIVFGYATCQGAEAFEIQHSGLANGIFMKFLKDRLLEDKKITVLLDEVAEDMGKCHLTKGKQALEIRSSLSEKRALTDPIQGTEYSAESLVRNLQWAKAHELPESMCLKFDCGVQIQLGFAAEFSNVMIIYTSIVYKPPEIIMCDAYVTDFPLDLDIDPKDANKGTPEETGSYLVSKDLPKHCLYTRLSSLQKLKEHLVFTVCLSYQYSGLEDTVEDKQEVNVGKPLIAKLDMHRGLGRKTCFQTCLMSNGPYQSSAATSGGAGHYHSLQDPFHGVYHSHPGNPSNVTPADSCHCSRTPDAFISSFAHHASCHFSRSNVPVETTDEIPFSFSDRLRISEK
Procedure: The MALT1 activity was measured in the pancreatic cancer cells Panc-1, Panc-2 and in the reference line HPDE as well as in the PMA-stimulated and non-stimulated Jurkat cells. In order to examine whether mepazine, biperiden or a combination of both active ingredients influence the MALT1 activity and pancreatic cancer cells, an assay was performed as described in Nagel et al.. For this purpose, the pancreatic cancer cell lines and the reference cell lines were treated with biperiden (29.6 μg/ml), mepazine (25 μM), a combination of both active ingredients (15 μM mepazine+3.71 μg/ml biperiden) or only with DMSO. The cells were subsequently lysed and precipitated with mouse anti-MALT1 antibody (SC-76677, Santa Cruz, Calif., USA) as previously described by Gungor et al.. As described in the protocol, the fluorogenic substrate AC-LRSR-AMC, which was derived from the C-terminal BCL 10 cleavage site, was used as a substrate for MALT1. The cleavage activity of MALT1 was subsequently determined as relative fluorescence units by a microtiter plate reader (FLUOstar, Omega, BMG Labtech).
The results were determined after 24 hours of incubation with mepazine, biperiden, or a combination of both active ingredients. It was shown that pancreatic cancer cell lines as well as non-malignant, immortalized HPDE cell lines had constitutive MALT1 activity, although to a different extent. As a reference, a non-stimulated Jurkat cell line and a Jurkat cell line that was activated with PMA were examined.

[3] = test system: human Panc-1 tumor cells; assay: Mouse xenograft model with subcutaneous Panc-1 tumor cells; format: in vivo, pfp−/−/rag2−/− double knockout mice; conditions: for size of the subcutaneous tumor: daily i.p. treatment, 16 mg/kg mepazine; for size of the subcutaneous tumor / tumor sizes compared to the control groups: 10 mg/kg biperiden; for tumor sizes compared to the control groups: daily i.p., 16 mg/kg mepazine or both
Text: For the mouse xenograft model pfp−/−/rag2−/− double knockout mice were used. […] Owing to the inactivated rag2 gene, the mouse lacks mature T or B lymphocytes. The mouse model was developed by the Taconic Institute (Quality Laboratory Animals and Services for Research, DK8680 Ry, Taconic Europe, Denmark) by crossing the PFPN12 mouse model with the RAGN12 mouse model. This model was back crossed over 12 generations (N12) with C57BL/6NTac, and the colony was maintained by homozygous pairing. The mouse model was used in the course of the present invention with PDAC cells of the cell line Panc-1, which were administered subcutaneously. 12 days after subcutaneous injection of 10^6 human Panc-1 tumor cells, the mice were treated daily either with 16 mg/kg mepazine i.p. (n=10), 10 mg/kg biperiden (n=10) i.p. or with a combination of both active ingredients, that is with 16 mg/kg mepazine and 10 mg/kg biperiden (n=10) i.p. The control group (n=10) was not treated. The daily treatment was performed under identical, standardized conditions. The same 3-days-cycle was used over the complete period of the study: day one comprised the injection of the medication and the determination of the bodyweight by weighing. Day 2 comprised the injection of the medication and the determination of the subcutaneous tumor growth with a caliper. Day 3 comprised the injection of the medication and neuroscoring. […] After euthanizing, the subcutaneous tumors were removed from the mice. Prior to the surgery, the body of the mouse was disinfected with ethanol. The skin above the tumor was carefully incised, and the tumor was surgically removed from the adjacent tissue. After removal, the tumor was weighed and measured. For evaluation only mice were used which had developed a tumor. […] The volumes of the subcutaneous tumors were measured with a caliper after removal and calculated using the formula length× width^2 as described in [8]. […] The average tumor size in the control group was 729.33 mm^3±186.25 mm^3 compared to 130.43 mm^3±63.96 mm^3 in the group that was treated with mepazine (p=0.002; one-sided Fisher's exact test).

[4] = test system: L3.6pl res; assay: cleaved caspase 3 sandwich ELISA (apoptosis), L3.6pl res; format: cell-based, human; conditions: 29.6 μg/ml biperiden
Procedure: as §1

Row | Compound | cleaved caspase 3 [1] [RLU] | increase of apoptosis rate compared to vehicle ([1]; p=0.049) [%] | MALT1 activity ([2]; HPDE, 29.7 μg/ml biperiden, 10, 30 and 60 minutes after incubation with the MALT1 substrate, significantly (p=0.002; p=0.005; p=0.012)) | MALT1 activity ([2]; Panc-1, 29.7 μg/ml biperiden) | MALT1 activity ([2]; Panc-2, 29.7 μM biperiden, immediately and 10 minutes after addition of the MALT1 substrate, statistically significant (p=0.011; p=0.031)) | size of the subcutaneous tumor ([3]; Panc-1 xenograft) | tumor sizes compared to the control groups ([3]; Panc-1 xenograft) | compatibility of administration ([3]; mice, 10 mg/kg biperiden i.p. daily) | motor activity compared to mice that received mepazine or no medication ([3]; mice, 10 mg/kg biperiden i.p. or 16 mg/kg mepazine and 10 mg/kg biperiden i.p., daily) | cleaved caspase 3 ([4]; after 24 hours) [RLU] | increase of apoptosis rate compared to vehicle ([4]; after 24 hours, p=0.008) [%] | cleaved caspase 3 ([4]; after 48 hours) [RLU] | increase of apoptosis rate compared to vehicle ([4]; after 48 hours, p=0.003) [%] | cleaved caspase 3 ([4]; after 72 hours) [RLU] | increase of apoptosis rate compared to vehicle ([4]; after 72 hours, p=0.021) [%] | MALT1 activity ([2]; HPDE, 25 μM mepazine, 24 hours of incubation) | MALT1 activity ([2]; Panc-1, 25 μM mepazine, immediately after addition of the MALT1 substrate and 10, 30, 60 and 90 minutes thereafter, statistically significant) | MALT1 activity ([2]; Panc-2, 25 μM mepazine) | average tumor size ([3]; Panc-1 xenograft, 16 mg/kg mepazine i.p. daily, ±63.96 mm^3, control 729.33 mm^3±186.25 mm^3, p=0.002) [mm^3]
1 | OC(CCN1CCCCC1)(c1ccccc1)C1CC2C=CC1C2 (stereo not drawn) [biperiden] | 325.1±48.3 | 125.3 | reduced the MALT1 activity | visibly reduced the MALT1 activity; however, this effect was not statistically significant | the MALT1 activity was reduced | significantly reduced | visibly smaller | good compatibility | motorically more active | 770.0±72.5 | 274 | 848.1±45.7 | 273.8 | 633.3±55.7 | 204.0 |  |  |  | 
2 | CN1CCCC(CN2c3ccccc3Sc3ccccc32)C1 (stereo not drawn) [mepazine] |  |  |  |  |  | significantly reduced | visibly smaller |  |  |  |  |  |  |  |  | did not influence the MALT1 activity | the MALT1 activity was reduced | reduced the MALT1 activity, whereas this reduction however was not statistically significant | 130.43
